Values of other authors in US20260137642A1 (CANCER PREVENTION PHARMACEUTICALS, INC., priority 2021, published 2026).

Assays:
ODC enzyme activity = biological target: T1, ODC enzyme activity (Homo sapiens, UniProt P11926); details: oral, daily, humans; cited from earlier work
T1 construct: from tissue; host or cells: human epithelial tissues (in vivo, oral dosing); finding cited from the literature
T1 sequence (P11926 1-461): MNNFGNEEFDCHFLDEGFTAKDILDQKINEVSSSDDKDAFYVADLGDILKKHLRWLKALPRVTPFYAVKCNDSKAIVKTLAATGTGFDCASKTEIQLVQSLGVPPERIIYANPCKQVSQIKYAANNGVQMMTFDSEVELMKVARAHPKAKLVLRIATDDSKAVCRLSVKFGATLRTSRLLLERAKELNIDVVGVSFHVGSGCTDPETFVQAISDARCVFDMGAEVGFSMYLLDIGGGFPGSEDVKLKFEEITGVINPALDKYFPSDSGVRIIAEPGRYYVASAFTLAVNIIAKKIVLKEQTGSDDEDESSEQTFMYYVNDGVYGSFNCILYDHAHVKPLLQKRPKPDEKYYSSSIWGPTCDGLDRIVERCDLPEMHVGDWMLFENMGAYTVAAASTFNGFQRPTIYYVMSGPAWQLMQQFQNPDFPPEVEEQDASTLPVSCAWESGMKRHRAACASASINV

islet replication = details: in vitro; cited from earlier work
β cell function = details: mouse models including the NOD mouse; cited from earlier work

In the case of `NCCCC(N)(C(=O)O)C(F)F` (stereo not drawn) [eflornithine, 2,5-diamino-2-(difluoromethyl) pentanoic acid], the “ODC enzyme activity and polyamine contents in epithelial tissues” value (ODC enzyme activity) is listed as “inhibits ODC enzyme activity and polyamine contents”, the “Effect on islet replication” value (islet replication) is listed as “little effect on islet replication” and the “β cell function and diabetes onset” value (β cell function) is listed as “preserves β cell function and delays diabetes onset”.
